Where two headings read alike, the source gives them in different places.
Key:
[1] = Biodistribution studies in mice (radioiodinated compounds, % ID/g-tissue); format: in vivo; details: tracer level, but MDTA-Na 0.18M and MDTA-NMG 0.19M; for Biodistribution, Blood 5' / Biodistribution, Kidney 5' / Biodistribution, Liver 5' / Biodistribution, Sm/Lrg. Intestine 5': 5 min; for Biodistribution, Kidney 1' / Biodistribution, Blood 1' / Biodistribution, Liver 1' / Biodistribution, Sm/Lrg. Intestine 1': 1 min; for tissue uptake at 1 min / tissue uptake at 5 min / tissue uptake at 1 h: mouse, iv; for Biodistribution, Blood 60' / Biodistribution, Kidney 60' / Biodistribution, Liver 60' / tissue uptake at 1 h / Biodistribution, Sm/Lrg. Intestine 60': 60'
Experimental: All of the new analogs were radiolabeled in order to determine their physical and biological properties. The iodinated compounds were exchange-labeled by heating with Na^125 I in the presence of CuSO4 and Na2 S2 O5 in glacial acetic acid at 135-150° C. for 1 h, followed by HPLC purification using a nucleosil C18 column and CH3 CN--H2 O containing 0.1% TFA as an eluent. In some cases (e.g. the compound of Example 12) the radioiodination was carried out by heating with Na*I in HOAc--NaOAc (pH 4.6) at 100° C. for 15 min. In all cases radiolabeled compounds of acceptable radiochemical purity and specific activity were obtained.
The compound of formula I, N,N-dimethyl-diatrizoic acid, was similarly radiolabeled for biological studies.
a) For intravenous administration the preferred vehicle for the compounds of formula I, II and III is bovine serum albumin, however, other physiologically acceptable vehicles may also be used.
Biodistribution studies were conducted in mice and the results are given in Table I. X-Ray CT images of MDTA in mice and rats indicate that these hydrophobic diatrizoate analogs may be of promise for liver imaging.

[2] = Water solubility of MDTA salts; format: physicochemical
Experimental: The compound of formula I, N,N-Dimethyldiatrizoic acid (I') (hereinafter sometimes referred to as MDTA) was synthesized, as in reference H. Holtermann et al., U.S. Pat. No. 3,178,673, Apr. 13, 1965, by the N-methylation of diatrizoic acid (IV) using either methyl iodide or dimethyl sulfate in aqueous media at alkaline pH to obtain pure MDTA (>99.9% purity) as a white crystalline solid (m.p. 185° C.).

| SMILES | Biodistribution, Blood 5' ([1]; blood) | Biodistribution, Kidney 1' ([1]; kidney) | Biodistribution, Kidney 60' ([1]; kidney, 60 min) | Biodistribution, Liver 60' ([1]; liver, 60 min) | Biodistribution, Blood 1' ([1]; blood) | Biodistribution, Kidney 5' ([1]; kidney) | Biodistribution, Liver 1' ([1]; liver) | Biodistribution, Liver 5' ([1]; liver) | Biodistribution, Sm/Lrg. Intestine 1' ([1]; small/large intestine) | Biodistribution, Sm/Lrg. Intestine 5' ([1]; small/large intestine) | Biodistribution, Sm/Lrg. Intestine 60' ([1]; small/large intestine, 60 min) | other results |
| --- | --- | --- | --- | --- | --- | --- | --- | --- | --- | --- | --- | --- |
| CC(=O)N(C)c1c(I)c(C(=O)O)c(I)c(N(C)C(C)=O)c1I [MDTA, 3,5-Bis-(Acetylmethylamino)-2,4,6-triiodobenzoic acid] | 1.21 % ID/g-tissue | 37.57 % ID/g-tissue | 0.18 % ID/g-tissue | 0.85 % ID/g-tissue | – | – | – | – | – | – | – | Biodistribution, Blood 60' ([1]; blood): 0.00 % ID/g-tissue; tissue uptake at 1 min ([1]; blood, blood, read-out: Biodistribution, Blood 1'): 4.56 %ID/g; tissue uptake at 5 min ([1]; kidney, kidney, read-out: Biodistribution, Kidney 5'): 21.5 %ID/g; tissue uptake at 1 min ([1]; liver, liver, read-out: Biodistribution, Liver 1'): 15.8 %ID/g; tissue uptake at 5 min ([1]; liver, liver, read-out: Biodistribution, Liver 5'): 15.4 %ID/g; tissue uptake at 1 min ([1]; small/large intestine, small/large intestine, read-out: Biodistribution, Sm/Lrg. Intestine 1'): 1.5 %ID/g; tissue uptake at 5 min ([1]; small/large intestine, small/large intestine, read-out: Biodistribution, Sm/Lrg. Intestine 5'): 4.55 %ID/g; tissue uptake at 1 h ([1]; small/large intestine, small/large intestine, read-out: Biodistribution, Sm/Lrg. Intestine 60'): 13.3 %ID/g |
| CC(=O)N(C)c1c(I)c(C(=O)O)c(I)c(N(C)C(C)=O)c1I [MDTA-NMG] | 3.66 % ID/g-tissue | 13.53 % ID/g-tissue | 0.81 % ID/g-tissue | 2.13 % ID/g-tissue | 6.63 % ID/g-tissue | 12.65 % ID/g-tissue | 12.30 % ID/g-tissue | 16.23 % ID/g-tissue | 2.03 % ID/g-tissue | 3.80 % ID/g-tissue | 16.48 % ID/g-tissue | Biodistribution, Blood 60' ([1]; blood, 60 min): 0.12 % ID/g-tissue; Water solubility ([2]; listed as N-methyl-glucamine (NMG) salt): ~ 1.3 M |
| CC(=O)N(C)c1c(I)c(C(=O)O)c(I)c(N(C)C(C)=O)c1I [MDTA-Na] | 3.03 % ID/g-tissue | 12.97 % ID/g-tissue | 0.96 % ID/g-tissue | 2.42 % ID/g-tissue | 6.21 % ID/g-tissue | 12.72 % ID/g-tissue | 13.23 % ID/g-tissue | 17.56 % ID/g-tissue | 1.81 % ID/g-tissue | 3.92 % ID/g-tissue | 17.02 % ID/g-tissue | tissue uptake at 1 h ([1]; blood, blood, read-out: Biodistribution, Blood 60'): 0.16 %ID/g; Water solubility ([2]; listed as sodium salt): ~ 0.35 M |
